Test results: ChEMBL document CHEMBL1136158, “Effect of the acyl groups on O-->N acyl migration in the water-soluble prodrugs of HIV-1 protease inhibitor” (Bioorg Med Chem Lett, 2003)
Values after ≈ are worked out from the molar mass of the structure shown.

Experiments:
[1] = physchem
[2] = Time required for 50% release of parent drug in phosphate buffered saline (PBS) at 37 degrees Centigrade; type: ADME; conditions: buffer
[3] = Solubility ratio of prodrug versus parent drug; type: physicochemical
[4] = Dissociation constant was determined; type: physicochemical

| Compound | solubility [1] [µg/mL] | T1/2 [2] [min] | Solubility ratio [3] | pKa [4] |
| --- | --- | --- | --- | --- |
| CC(C)(C)NC(=O)[C@H]1N(C(=O)[C@@H](O)[C@H](Cc2ccccc2)NC(=O)OCc2ccccc2)CSC1(C)C | 47 (≈ 89.1 µM) |  |  |  |
| CC(C)(C)NC(=O)[C@H]1N(C(=O)[C@@H](O)[C@H](Cc2ccccc2)NC(=O)c2ccc(Cl)cc2)CSC1(C)C | 28 (≈ 52.6 µM) |  |  |  |
| CC(C)(C)NC(=O)[C@H]1N(C(=O)[C@@H](O)[C@H](Cc2ccccc2)NC(=O)c2ccccc2)CSC1(C)C | 120 (≈ 241 µM) |  |  |  |
| CC(C)(C)NC(=O)[C@H]1N(C(=O)[C@@H](O)[C@H](Cc2ccccc2)NC(=O)c2ccc([N+](=O)[O-])cc2)CSC1(C)C | 57 (≈ 105 µM) |  |  |  |
| CC(C)(C)NC(=O)[C@H]1N(C(=O)[C@@H](OC(=O)c2ccc([N+](=O)[O-])cc2)[C@@H](N)Cc2ccccc2)CSC1(C)C.Cl | 13000 | 2.6 | 228 |  |
| Cc1cccc(C)c1OCC(=O)O[C@H](C(=O)N1CSC(C)(C)[C@H]1C(=O)NC(C)(C)C)[C@@H](N)Cc1ccccc1.Cl | 13000 | < 1 | 8666 |  |
| CC(C)(C)NC(=O)[C@H]1N(C(=O)[C@@H](OC(=O)OCc2ccccc2)[C@@H](N)Cc2ccccc2)CSC1(C)C.Cl | 21000 | < 1 | 449 | 3.2 |
| CC(C)(C)NC(=O)[C@H]1N(C(=O)[C@@H](OC(=O)c2ccc(Cl)cc2)[C@@H](N)Cc2ccccc2)CSC1(C)C.Cl | 4300 | 16 | 154 |  |
| CC(C)(C)NC(=O)[C@H]1N(C(=O)[C@@H](OC(=O)Cc2ccccc2)[C@@H](N)Cc2ccccc2)CSC1(C)C.Cl | 33000 | 2.2 | 340 | 4.31 |
| CC(C)(C)NC(=O)[C@H]1N(C(=O)[C@@H](OC(=O)c2ccccc2)[C@@H](N)Cc2ccccc2)CSC1(C)C.Cl | 15000 | 30 | 125 | 4.2 |
| Cc1ccc(C(=O)O[C@H](C(=O)N2CSC(C)(C)[C@H]2C(=O)NC(C)(C)C)[C@@H](N)Cc2ccccc2)cc1.Cl | 6200 | 44 | 155 |  |
| COc1ccc(C(=O)O[C@H](C(=O)N2CSC(C)(C)[C@H]2C(=O)NC(C)(C)C)[C@@H](N)Cc2ccccc2)cc1.Cl | 16000 | 67 | 211 |  |
| CC(C)(C)NC(=O)[C@H]1N(C(=O)[C@@H](O)[C@H](Cc2ccccc2)NC(=O)Cc2ccccc2)CSC1(C)C | 97 (≈ 190 µM) |  |  |  |
| COc1ccc(C(=O)N[C@@H](Cc2ccccc2)[C@H](O)C(=O)N2CSC(C)(C)[C@H]2C(=O)NC(C)(C)C)cc1 | 76 (≈ 144 µM) |  |  |  |
